Measured values reported in PubChem BioAssay (NCI).
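Each compound was tested at five concentrations against cells in 96-well plates for 48 hours. At the TGI there is no net growth.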

Columns and labels:
Assay in all cases: NCI-60 cell line screen, 48 h
HT29 colon = system: HT29 colon
SF-268 CNS = system: SF-268 CNS
SF-295 CNS = system: SF-295 CNS
SW-620 colon = system: SW-620 colon
UO-31 renal = system: UO-31 renal
CAKI-1 renal = system: CAKI-1 renal
COLO 205 colon = system: COLO 205 colon
HCC-2998 colon = system: HCC-2998 colon
HCT-116 colon = system: HCT-116 colon

O=C(Cc1ccc([N+](=O)[O-])cc1)OCC#CCOC(=O)Cc1ccc([N+](=O)[O-])cc1
TGI (HT29 colon): > 10 µM | TGI (SF-268 CNS): > 10 µM | TGI (SF-295 CNS): > 10 µM | TGI (SW-620 colon): > 10 µM | TGI (UO-31 renal): > 10 µM

O=C(Nc1ccccc1C(=O)NCCCO)/C(=C/c1ccccc1O)NC(=O)c1ccccc1
TGI (CAKI-1 renal): > 100 µM | TGI (COLO 205 colon): > 100 µM | TGI (HCC-2998 colon): > 100 µM | TGI (HCT-116 colon): > 75.8 µM | TGI (HT29 colon): > 100 µM | TGI (SF-268 CNS): > 100 µM | TGI (SF-295 CNS): > 75.8 µM | TGI (SW-620 colon): > 100 µM | TGI (UO-31 renal): > 31.6 µM

NC(=O)c1cc2ccccc2o/c1=N/O
TGI (CAKI-1 renal): 70.3 µM | TGI (COLO 205 colon): > 100 µM | TGI (HCC-2998 colon): > 100 µM | TGI (HCT-116 colon): > 100 µM | TGI (HT29 colon): > 100 µM | TGI (SF-268 CNS): > 100 µM | TGI (SF-295 CNS): > 100 µM | TGI (SW-620 colon): > 100 µM | TGI (UO-31 renal): > 100 µM

COCc1nc2c(OC)cc(-c3nc4ccc(N5CCN(C)CC5)cc4[nH]3)c(OC)c2[nH]1
TGI (CAKI-1 renal): > 100 µM | TGI (COLO 205 colon): 77 µM | TGI (HCT-116 colon): > 100 µM | TGI (HT29 colon): > 100 µM | TGI (SF-268 CNS): > 100 µM | TGI (SF-295 CNS): 47.2 µM | TGI (SW-620 colon): > 100 µM | TGI (UO-31 renal): > 100 µM

NC1CNC(=O)c2c(Cl)sc(Cl)c21 (stereo not given)
TGI (CAKI-1 renal): > 100 µM | TGI (COLO 205 colon): > 100 µM | TGI (HCC-2998 colon): > 100 µM | TGI (HCT-116 colon): > 100 µM | TGI (HT29 colon): > 100 µM | TGI (SF-268 CNS): > 100 µM | TGI (SF-295 CNS): > 100 µM | TGI (SW-620 colon): > 100 µM | TGI (UO-31 renal): > 100 µM

Brc1cccc(N=NN2CCCC2)c1
TGI (CAKI-1 renal): > 100 µM | TGI (COLO 205 colon): > 100 µM | TGI (HCT-116 colon): > 100 µM | TGI (SF-268 CNS): > 100 µM | TGI (SF-295 CNS): > 100 µM | TGI (SW-620 colon): > 100 µM | TGI (UO-31 renal): > 100 µM

CCNC(=O)C1CCCN1C(=O)C(CCCN=C(N)N)NC(=O)C(CC(C)C)NC(=O)C(Cc1c[nH]c2ccccc12)NC(=O)C(Cc1ccc(O)cc1)NC(=O)C(CO)NC(=O)C(Cc1c[nH]c2ccccc12)NC(=O)C(Cc1cnc[nH]1)NC(=O)C1CCC(=O)N1 (stereo not given)
TGI (CAKI-1 renal): > 100 µM | TGI (COLO 205 colon): > 100 µM | TGI (HCC-2998 colon): > 100 µM | TGI (HT29 colon): > 100 µM | TGI (SF-268 CNS): > 100 µM | TGI (SF-295 CNS): > 100 µM | TGI (SW-620 colon): > 100 µM | TGI (UO-31 renal): > 100 µM

Clc1ccc(OCc2nnc(CCCCCCCCc3nnc(COc4ccc(Cl)cc4)n3Nc3ccccc3)n2Nc2ccccc2)cc1
TGI (CAKI-1 renal): 27.2 µM | TGI (COLO 205 colon): 0.894 µM | TGI (HCC-2998 colon): > 68.7 µM | TGI (HCT-116 colon): 24.2 µM | TGI (HT29 colon): 34.3 µM | TGI (SF-268 CNS): > 100 µM | TGI (SF-295 CNS): > 100 µM | TGI (SW-620 colon): > 100 µM | TGI (UO-31 renal): > 95.1 µM

Nc1ccc(S(=O)(=O)Nc2nc3ccccc3nc2N2CCCCC2)cc1
TGI (CAKI-1 renal): > 100 µM | TGI (COLO 205 colon): > 100 µM | TGI (HCC-2998 colon): > 100 µM | TGI (HCT-116 colon): > 100 µM | TGI (HT29 colon): > 100 µM | TGI (SF-268 CNS): > 100 µM | TGI (SF-295 CNS): > 100 µM | TGI (SW-620 colon): > 100 µM | TGI (UO-31 renal): 55.1 µM

C=c1c(OC)c(OC)c(O)c2c1=c1cc([N+](=O)[O-])cc(OC)c1=N2
TGI (CAKI-1 renal): > 100 µM | TGI (COLO 205 colon): > 100 µM | TGI (HCC-2998 colon): > 100 µM | TGI (HCT-116 colon): > 100 µM | TGI (HT29 colon): > 100 µM | TGI (SF-268 CNS): > 100 µM | TGI (SF-295 CNS): > 100 µM | TGI (SW-620 colon): > 100 µM | TGI (UO-31 renal): > 100 µM

Nc1ccc2[nH]c(-c3cccc(Cl)c3)cc(=O)c2c1
TGI (COLO 205 colon): > 100 µM | TGI (HCC-2998 colon): 54.4 µM | TGI (HT29 colon): 29.5 µM | TGI (SW-620 colon): > 100 µM

CC1(C)CNC(=O)C2(C=NC(C)(C)CNC(=O)C3(C=N1)CCCO3)CCCO2 (stereo not given)
TGI (CAKI-1 renal): > 10 µM | TGI (COLO 205 colon): > 10 µM | TGI (HCC-2998 colon): > 10 µM | TGI (HCT-116 colon): > 10 µM | TGI (HT29 colon): > 10 µM | TGI (SF-268 CNS): > 10 µM | TGI (SF-295 CNS): > 10 µM | TGI (SW-620 colon): > 10 µM

CC1(CNCc2ccccc2)CC(CCc2ccccc2)N(C(=O)c2ccc([N+](=O)[O-])cc2)C1Cc1ccc(O)cc1 (stereo not given)
TGI (CAKI-1 renal): 28.1 µM | TGI (COLO 205 colon): 19.4 µM | TGI (HCC-2998 colon): 27.1 µM | TGI (HCT-116 colon): 23.1 µM | TGI (HT29 colon): 22 µM | TGI (SF-268 CNS): 27.6 µM | TGI (SF-295 CNS): 25.6 µM | TGI (SW-620 colon): 86 µM | TGI (UO-31 renal): 23.3 µM

N#Cc1cc2c(cc1Cl)Sc1nccn1S2(=O)=O
TGI (CAKI-1 renal): 3.6 µM | TGI (COLO 205 colon): 31.5 µM | TGI (HCT-116 colon): 4.03 µM | TGI (HT29 colon): 3.91 µM | TGI (SF-268 CNS): 13 µM | TGI (SF-295 CNS): 12.2 µM | TGI (SW-620 colon): 14.4 µM | TGI (UO-31 renal): 10.7 µM

CC(C)(C)c1cc(/C=C(\C#N)C(=O)NCCO)cc(C(C)(C)C)c1O
TGI (CAKI-1 renal): 77.6 µM | TGI (COLO 205 colon): 37.2 µM | TGI (HCT-116 colon): 32.7 µM | TGI (HT29 colon): 51.7 µM | TGI (SF-268 CNS): > 100 µM | TGI (SF-295 CNS): 40.8 µM | TGI (SW-620 colon): 97 µM | TGI (UO-31 renal): 49.7 µM

COc1ccc(Nc2nc3c([nH]2)c(=O)n(C)c(=O)n3C)cc1
TGI (CAKI-1 renal): > 10 µM | TGI (COLO 205 colon): > 10 µM | TGI (HCC-2998 colon): > 10 µM | TGI (HT29 colon): > 10 µM | TGI (SF-268 CNS): > 10 µM | TGI (SF-295 CNS): > 10 µM | TGI (SW-620 colon): > 10 µM

FC(F)(F)c1ccc2nc3n(c2c1)C(c1c(Cl)cccc1Cl)SC3 (stereo not given)
TGI (CAKI-1 renal): 28 µM | TGI (HCC-2998 colon): 35 µM | TGI (HCT-116 colon): 22.4 µM | TGI (HT29 colon): 30.4 µM | TGI (SF-268 CNS): 41.8 µM | TGI (SF-295 CNS): 30.3 µM | TGI (SW-620 colon): 34.9 µM | TGI (UO-31 renal): 26.8 µM

CCOc1cc(-c2nc3ccccn3c2/N=C/c2cc(Br)ccc2O)ccc1O
TGI (CAKI-1 renal): > 100 µM | TGI (COLO 205 colon): > 100 µM | TGI (HCT-116 colon): > 100 µM | TGI (HT29 colon): > 100 µM | TGI (SF-268 CNS): > 100 µM | TGI (SF-295 CNS): > 100 µM | TGI (SW-620 colon): > 100 µM | TGI (UO-31 renal): 84.6 µM

CCOn1c(C2(CC3CCN(C(=O)c4ccccc4)CC3)OCCO2)cc2ccccc21
TGI (CAKI-1 renal): 30.2 µM | TGI (COLO 205 colon): 36.3 µM | TGI (HCT-116 colon): 29.2 µM | TGI (HT29 colon): 34.2 µM | TGI (SF-268 CNS): 35 µM | TGI (SF-295 CNS): 30.5 µM | TGI (SW-620 colon): 35.7 µM | TGI (UO-31 renal): 26.9 µM

CN(C)CCn1c(=O)c2ccc(NCCCN(C)CCCNc3ccc4c(=O)n(CCN(C)C)c(=O)n5c6ccc([N+](=O)[O-])cc6c(=O)c3c45)c3c(=O)c4cc([N+](=O)[O-])ccc4n(c1=O)c23
TGI (CAKI-1 renal): 1.16 µM | TGI (COLO 205 colon): 0.204 µM | TGI (HCC-2998 colon): 0.0921 µM | TGI (HCT-116 colon): 0.118 µM | TGI (HT29 colon): 0.726 µM | TGI (SF-268 CNS): 0.733 µM | TGI (SF-295 CNS): 0.594 µM | TGI (UO-31 renal): 0.705 µM

Cn1c([O-])nc(-n2cc[n+](C)c2)cc1=O
TGI (COLO 205 colon): > 100 µM | TGI (HCT-116 colon): > 100 µM | TGI (HT29 colon): > 100 µM | TGI (SF-268 CNS): > 100 µM | TGI (SW-620 colon): > 100 µM | TGI (UO-31 renal): > 100 µM

COC(=O)c1ccc(C=Nc2ccc(S(N)(=O)=O)cc2)cc1
TGI (CAKI-1 renal): > 100 µM | TGI (COLO 205 colon): > 100 µM | TGI (HCC-2998 colon): > 100 µM | TGI (HCT-116 colon): > 100 µM | TGI (HT29 colon): > 100 µM | TGI (SF-268 CNS): > 100 µM | TGI (SF-295 CNS): > 100 µM | TGI (UO-31 renal): > 100 µM

Cn1c2ccccc2n2c(=O)c3cc([N+](=O)[O-])ccc3c(C#N)c12
TGI (COLO 205 colon): > 100 µM | TGI (HCC-2998 colon): > 100 µM | TGI (HCT-116 colon): > 100 µM | TGI (HT29 colon): > 100 µM | TGI (SF-268 CNS): > 100 µM | TGI (SF-295 CNS): > 100 µM | TGI (SW-620 colon): > 100 µM | TGI (UO-31 renal): > 100 µM
